According to ChEMBL document CHEMBL2429716, “Molecular modeling studies of substituted 3,4-dihydroxychalcone derivatives as 5-lipoxygenase and cyclooxygenase inhibitors” (Med Chem Res, 2013):

Columns and labels:
[1] = molecular target: T1, Polyunsaturated fatty acid 5-lipoxygenase (Rattus norvegicus, UniProt P12527); assay: Inhibition of 5-lipoxygenase in rat RBL1 cells; format: cell-based, RBL-1
T1 sequence (P12527 whole entry): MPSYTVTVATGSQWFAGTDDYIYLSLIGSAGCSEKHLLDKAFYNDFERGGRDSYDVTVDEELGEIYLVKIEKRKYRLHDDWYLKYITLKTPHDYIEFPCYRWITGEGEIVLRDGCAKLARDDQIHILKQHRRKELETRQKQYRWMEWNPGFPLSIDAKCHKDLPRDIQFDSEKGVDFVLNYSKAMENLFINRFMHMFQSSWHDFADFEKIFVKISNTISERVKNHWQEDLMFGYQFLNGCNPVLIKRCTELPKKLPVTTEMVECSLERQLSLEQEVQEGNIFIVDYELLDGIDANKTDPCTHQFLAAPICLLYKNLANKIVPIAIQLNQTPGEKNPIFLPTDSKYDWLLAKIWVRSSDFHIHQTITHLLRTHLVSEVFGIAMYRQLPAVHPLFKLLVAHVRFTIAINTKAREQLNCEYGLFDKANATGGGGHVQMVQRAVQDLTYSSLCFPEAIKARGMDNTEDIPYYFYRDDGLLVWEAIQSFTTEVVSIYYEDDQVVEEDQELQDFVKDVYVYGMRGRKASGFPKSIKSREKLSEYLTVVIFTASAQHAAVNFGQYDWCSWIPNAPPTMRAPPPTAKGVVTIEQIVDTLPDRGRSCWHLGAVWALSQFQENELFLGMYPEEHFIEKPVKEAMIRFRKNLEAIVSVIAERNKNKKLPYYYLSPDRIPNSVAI

Cyclooxygenase = molecular target: T2, Cyclooxygenase (Rattus norvegicus, UniProt P35355+Q63921); assay: Inhibition of cyclooxygenase in rat RBL1 cells; format: cell-based; conditions: rbl-1
T2 sequence (P35355 whole entry): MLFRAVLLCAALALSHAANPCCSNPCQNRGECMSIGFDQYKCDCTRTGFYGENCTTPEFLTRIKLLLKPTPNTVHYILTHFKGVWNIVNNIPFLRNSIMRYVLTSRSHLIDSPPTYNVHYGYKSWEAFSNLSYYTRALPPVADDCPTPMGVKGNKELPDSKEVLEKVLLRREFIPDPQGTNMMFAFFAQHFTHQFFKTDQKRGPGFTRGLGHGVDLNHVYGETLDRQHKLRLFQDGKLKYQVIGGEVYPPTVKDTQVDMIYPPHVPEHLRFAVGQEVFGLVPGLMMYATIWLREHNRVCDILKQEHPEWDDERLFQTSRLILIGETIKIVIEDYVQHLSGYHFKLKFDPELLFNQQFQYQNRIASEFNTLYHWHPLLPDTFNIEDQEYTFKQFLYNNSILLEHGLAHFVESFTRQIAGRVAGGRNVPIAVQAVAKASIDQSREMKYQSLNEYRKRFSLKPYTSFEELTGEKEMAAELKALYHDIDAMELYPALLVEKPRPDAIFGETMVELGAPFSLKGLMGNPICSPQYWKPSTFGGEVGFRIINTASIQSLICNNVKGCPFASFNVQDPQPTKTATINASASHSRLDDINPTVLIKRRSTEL
T2 sequence (Q63921 whole entry): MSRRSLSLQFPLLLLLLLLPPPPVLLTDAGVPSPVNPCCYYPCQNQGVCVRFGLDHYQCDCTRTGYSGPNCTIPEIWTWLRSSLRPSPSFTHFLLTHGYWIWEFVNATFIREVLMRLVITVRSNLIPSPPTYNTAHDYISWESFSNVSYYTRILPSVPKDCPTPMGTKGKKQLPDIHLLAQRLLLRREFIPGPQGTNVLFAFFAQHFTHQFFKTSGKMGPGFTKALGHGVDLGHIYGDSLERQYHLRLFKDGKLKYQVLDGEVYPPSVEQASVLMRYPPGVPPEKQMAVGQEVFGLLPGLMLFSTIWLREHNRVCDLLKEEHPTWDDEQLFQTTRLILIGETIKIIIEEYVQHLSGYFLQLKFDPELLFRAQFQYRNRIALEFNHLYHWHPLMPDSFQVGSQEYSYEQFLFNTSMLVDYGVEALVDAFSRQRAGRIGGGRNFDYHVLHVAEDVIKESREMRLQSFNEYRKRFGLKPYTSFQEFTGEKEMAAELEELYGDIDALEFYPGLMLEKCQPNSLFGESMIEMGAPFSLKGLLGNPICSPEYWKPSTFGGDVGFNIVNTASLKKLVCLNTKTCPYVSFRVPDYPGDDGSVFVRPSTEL

| Structure (SMILES) | IC50 [1] [µM] | IC50 (Cyclooxygenase) [µM] |
| --- | --- | --- |
| COc1ccc(O)c(/C=C/C(=O)c2ccccc2)c1 | 41 | 41 |
| COc1ccc(/C=C/C(=O)c2ccccc2)c(O)c1 | 15 | 15 |
| O=C(/C=C/c1ccc(O)cc1)c1ccc(O)cc1O [ISOLIQUIRITIGENIN] |  | 35 |
| COc1ccc(OC)c(C(=O)/C=C/c2ccccc2)c1 | 7.8 | 7.8 |
| COc1ccc(/C=C/C(=O)c2ccccc2)cc1 [4-METHOXY CHALCONE] | 20 | 20 |
| CCOc1ccc(OCC)c(C(=O)/C=C/c2ccccc2)c1 | 2.4 | 2.4 |
| CN(C)c1cccc(/C=C/C(=O)c2ccccc2)c1 | 9.8 | 9.8 |
| CCOc1ccc(O)c(C(=O)/C=C/c2ccccc2)c1 | 5.3 | 5.3 |
| Cc1ccc(C)c(C(=O)/C=C/c2ccccc2)c1 | 16 | 16 |
| Cc1cc(C)c(/C=C/C(=O)c2ccccc2)c(C)c1 | 400 | 400 |
| Cc1ccc(/C=C/C(=O)c2ccccc2)c(C)c1 | 17 | 17 |
| CC(C)c1ccc(O)c(C(=O)/C=C/c2ccccc2)c1 | 4 | 4 |
| COc1cc(/C=C/C(=O)c2ccccc2)ccc1O | 9 | 9 |
| COc1ccc(OC)c(/C=C/C(=O)c2ccccc2)c1 | 7.8 | 7.8 |
| COc1ccc(C)cc1C(=O)/C=C/c1ccccc1 | 24 | 24 |
| CCOc1ccc(OC)c(C(=O)/C=C/c2ccccc2)c1 | 38 | 38 |
| CC(C)Oc1ccc(O)c(C(=O)/C=C/c2ccccc2)c1 | 11 | 11 |
| COc1ccc(O)c(C(=O)/C=C/c2ccccc2)c1 | 41 | 41 |
| COc1ccc(/C=C/C(=O)c2ccccc2)cc1OC | 18 | 18 |
| CN(C)c1ccc(/C=C/C(=O)c2ccccc2)cc1 | 4.7 | 4.7 |
| O=C(/C=C/c1ccc(Cl)cc1)c1ccccc1 [4-CHLORO CHALCONE] | 85 | 85 |
| O=C(/C=C/c1ccccc1)c1ccccc1 [CHALCONE] | 43 | 43 |
| O=C(/C=C/c1ccc(O)c(O)c1)c1ccc(O)cc1O [BUTEIN] |  | 0.0046 |

| Structure (SMILES) | IC50 [1] [µM] | IC50 (Cyclooxygenase) [µM] |
| --- | --- | --- |
| COc1ccc(OC(C)C)cc1C(=O)/C=C/c1ccccc1 | 14 | 14 |
| COc1ccccc1/C=C/C(=O)c1ccccc1 | 27 | 27 |
| COc1cc(/C=C/C(=O)c2ccccc2)cc(OC)c1OC | 16 | 16 |
| O=C(/C=C/c1ccc(O)c(O)c1)c1ccccc1O |  | 0.023 |
| Cc1ccc(/C=C/C(=O)c2ccccc2)cc1 | 76 | 76 |
| COc1ccc(/C=C/C(=O)c2ccccc2)c(OC)c1 | 10 | 10 |
| COc1cccc(OC)c1/C=C/C(=O)c1ccccc1 | 370 | 370 |
| CC(C)Oc1ccc(/C=C/C(=O)c2ccccc2)cc1 | 41 | 41 |
| O=C(/C=C/c1ccccc1C(F)(F)F)c1ccccc1 | 58 | 58 |
| CCCCOc1ccc(O)c(C(=O)/C=C/c2ccccc2)c1 | 1 | 1 |
| COc1cc(/C=C/C(=O)c2ccc(Cl)cc2)ccc1O |  | 8.9 |
| COc1ccc(C(=O)/C=C/c2ccc(O)c(OC)c2)cc1 |  | 12 |
| COc1cccc(/C=C/C(=O)c2ccccc2)c1 | 6.5 | 6.5 |
| O=C(/C=C/c1ccc(O)c(O)c1)c1cccc(O)c1 |  | 0.0042 |
| Cc1ccc(O)c(C(=O)/C=C/c2ccccc2)c1 | 39 | 39 |
| O=C(/C=C/c1ccc(O)c(O)c1)c1c(O)cc(O)cc1O [3,4,2',4',6'-PENTAHYDROXYCHALCONE] |  | 0.14 |
| CCOc1ccc(OC)cc1C(=O)/C=C/c1ccccc1 | 27 | 27 |
| Cc1cccc(/C=C/C(=O)c2ccccc2)c1 | 27 | 27 |
| O=C(/C=C/c1ccc([N+](=O)[O-])cc1)c1ccccc1 | 23 | 23 |
| O=C(/C=C/c1ccccc1Cl)c1ccccc1 | 92 | 92 |
| O=C(/C=C/c1ccc(O)c(O)c1)c1ccccc1 |  | 0.043 |
| O=C(/C=C/c1ccccc1)c1cc(O)ccc1O | 64 | 64 |
